The subject of data set [1] is A549. Nature of the data set: Combination with genotoxic agents, cell viability (Mixtures Blend). The class given is cell-based. Further details: key to Synergy or Antagonism, Plus Radiation (2 Gy): Plus = enhanced effect of radiation; *: Viability reduction driven predominantly by Compound (1) plus radiation. As for the experimental part: (§1) The cell-based experiments and assays were performed with either molecule but not always with both. Compounds (1) and (2) were generally very similar in those assays and experiments. Analysis of the combination experiments was performed using two methods: the Bliss Additivity model and the Mixtures Blend method to determine the degree of synergy, additivity, or antagonism. In the Bliss method, a matrix of Bliss scores was generated for each cell line and treatment, and a sum of the Bliss values over the range of combination concentrations tested was calculated. […] Larger average Bliss values indicate greater confidence in reporting synergy, and smaller scores indicate greater confidence in reporting antagonism. In the Mixtures Blend method combinants were added in a range of optimal ratios using design of experiment (DOE) software (DX-8 from STAT-EASE); the cells were irradiated with 2 Gy as required. Synergy was determined using statistical analysis of the data (ANOVA) to indicate linear (additivity) or statistically significant (p<0.1) non-linear (antagonism or synergy) mixes of the combinants. The following SOC agents were tested in double combinations with Compound (1): etoposide (a topoisomerase inhibitor that induces DSBs), cisplatin (DNA cross-linker), carboplatin (DNA cross-linker), fluorouracil (5-FU, antimetabolite that inhibits thymidylate synthase), paclitaxel (mitotic inhibitor that binds to tubulin), cetuximab (EGFR monoclonal antibody), and radiation. […] These findings were confirmed using the Bliss Additivity model (Table 21). […] While there is not total agreement in the various lines tested, (as detailed in the other sections) the majority agree and the conclusions arrived at are common to each. […] The cancer cell lines in Table 19 indicate: ESO26-gastroesophageal junction cancer, OE19-gastroesophageal junction cancer, […]549-lung cancer, colo205-colon cancer, H460-lung cancer, H2009-lung cancer, FaDu-pharynx cancer, Miapaca2-pancreatic cancer, HFL1-human fetal lung fibroblast.

The next data set concerns H2009. The description is as above. The class given is cell-based. Also on record: key to Synergy or Antagonism, Plus Radiation (2 Gy): Plus = enhanced effect of radiation; *: Viability reduction driven predominantly by Compound (1) plus radiation. The following applies: no agent ticked. As for the experimental part:
as §1

Another data set deals with H460. The data set is described as above. The class given is cell-based. Also on record: key to Synergy or Antagonism, Plus Radiation (2 Gy): Plus = enhanced effect of radiation; *: Viability reduction driven predominantly by Compound (1) plus radiation. The following applies: no agent ticked. As for the experimental part:
as §1

A further data set has as its system FaDu. The data set is described as above. In kind it is cell-based. Also on record: key to Synergy or Antagonism, Plus Radiation (2 Gy): Plus = enhanced effect of radiation; *: Viability reduction driven predominantly by Compound (1) plus radiation. As for the experimental part: as §1
Data set [2] concerns OE-19 GEJ cell line xenograft. Nature of the data set: OE-19 GEJ cell line xenograft efficacy with whole body IR. The class given is in vivo. The procedure: The in vivo efficacies of Compounds (1) and (2) in combination with whole body IR were examined in the OD26749 primary NSCLC (non-small cell lung cancer) and the OE-19 GEJ cell line xenograft models. In these studies, Compounds (1) and (2) were formulated with 16% captisol/1% PVP/1% HPMC E5 pH2.
The OE-19 cell line xenograft model was used to evaluate the efficacy of Compounds (1) and (2) alone and in combination with IR. Two cycles of treatment were administered (Day 0 and Day 7) as performed in the OD26749 model above.
In Tables 14 and 15, for example, PO bid (0, 4 h) indicates Compound (2) is administered twice (bid) at time point 0 and then 4 hours after; IR (0.25 h) qdx3 indicates radiation is administered 15 minutes (0.25 h) after the administration of Compound (2) (0 h), and once a day for 3 days (qdx3); q7dx2 indicates once a week for two weeks; qod indicates every other day twice (e.g., Day 1 and Day 3); and paclitaxel q7dx3 (−0.25 h), carboplatin q7dx3 (−0.25 h) indicates administration of paclitaxel and carboplatin 15 minutes prior to the administration of Compound (2), followed by additional administration of Compound (2) after 4 hours after the first administration of Compound (2).

A further data set deals with ESO26. Nature of the data set: Combination with etoposide, viability (Bliss analysis). In kind it is cell-based. The conditions noted are these: Compound (2) with etoposide; n = 3. As for the experimental part: (§2) The cell-based experiments and assays were performed with either molecule but not always with both. Compounds (1) and (2) were generally very similar in those assays and experiments. Analysis of the combination experiments was performed using two methods: the Bliss Additivity model and the Mixtures Blend method to determine the degree of synergy, additivity, or antagonism. In the Bliss method, a matrix of Bliss scores was generated for each cell line and treatment, and a sum of the Bliss values over the range of combination concentrations tested was calculated. […] Larger average Bliss values indicate greater confidence in reporting synergy, and smaller scores indicate greater confidence in reporting antagonism. In the Mixtures Blend method combinants were added in a range of optimal ratios using design of experiment (DOE) software (DX-8 from STAT-EASE); the cells were irradiated with 2 Gy as required. Synergy was determined using statistical analysis of the data (ANOVA) to indicate linear (additivity) or statistically significant (p<0.1) non-linear (antagonism or synergy) mixes of the combinants.

Data set [3] has as its system A549. Described as above. The class given is cell-based. The following applies: Compound (2) with etoposide; n = 1. As for the experimental part:
as §2

The subject of data set [4] is triple-negative breast cancer cell lines. The experiment in a line: Doxorubicin/epirubicin combination, all breast cancer lines tested. The class given is cell-based. The conditions noted are these: doxorubicin and Compound (2). The procedure: as §2
Data set [5] can be described thus: Blood exposure in ST-02-0004 study. The class given is in vivo. As for the experimental part:
The anti-tumor activity of Compound (2) in combination with focused-beam IR and the standard of care agents, paclitaxel and carboplatin, was also evaluated in the ST 02 0004 model. Treatment with paclitaxel, carboplatin, and IR was administered once per week for three weeks alone or in combination with Compound (2). […] Further, the 50 and 25 mg/kg Compound (2), paclitaxel/carboplatin, IR combination groups were statistically different (P<0.05) from the paclitaxel/carboplatin, paclitaxel/carboplatin/50 mg/kg Compound (2), and paclitaxel/carboplatin/IR groups. Compound (2) blood exposures were 9.3 and 27 μg*h/mL for the 25 and 50 mg/kg Compound (2) bid groups, respectively.

“Also recorded” adds a separate entry of the source.

In the case of `CNC(=O)c1ccnc2c([C@H](C)CNc3cc(-c4cnc(C)nc4)ncn3)cccc12` [Compound (1), (S)-N-methyl-8-(1-((2′-methyl-[4,5′-bipyrimidin]-6-yl)amino)propan-2-yl)quinoline-4-carboxamide], the “Synergy or Antagonism, No Radiation” value in the data set with A549 [1] (no agent ticked) is listed as “Synergy”; in the data set on A549 [1] (with Cetuximab), “Additivity”; in the data set with A549 [1] (with Cisplatin), “Additivity”; in the data set on A549 [1] (with Cisplatin and Etoposide), “Strong Synergy”; in the data set with A549 [1] (with Cisplatin and Paclitaxel) it was “additive; also recorded: Additivity”; with A549 [1] (with Etoposide), “Strong Synergy”. Further, the “Synergy or Antagonism, No Radiation” value is listed as “Antagonism” in the data set on A549 [1] (with Paclitaxel); “Additivity” with H2009; “Synergy” in the data set with H460; “Synergy” with FaDu (no agent ticked); “Additivity” in the data set with FaDu (with Cetuximab). The “Synergy or Antagonism, Plus Radiation (2 Gy)” value is recorded as “Plus” in the data set with A549 [1] (no agent ticked); “Additivity, Plus” in the data set on A549 [1] (with Cetuximab); “Strong Synergy, Plus” in the data set on A549 [1] (with Cisplatin and Etoposide); “Synergy, Plus” in the data set with A549 [1] (with Cisplatin and Paclitaxel); “Plus” in the data set on H2009; “Plus” with H460. Further, the “Synergy or Antagonism, Plus Radiation (2 Gy)” value is listed as “Plus” in the data set with FaDu (no agent ticked) and “Additivity, Plus” in the data set on FaDu (with Cetuximab). In addition, the tumor growth entry in data set [2] (Compound (1) in combination with 2 Gy whole body IR) was “significantly inhibited tumor growth”. The “% T/C (Day 18)” value in [2] (PO 100 mg/kg bid (0, 4 h) qd7x2, 2 Gy IR qd7x2 ([…]) whole body) stood at 24.0%; in data set [2] (PO 100 mg/kg bid (0, 4 h) qd7x 2, no IR), 79.0%.
`[2H]c1nc(C)nc([2H])c1-c1cc(NC[C@@H](C)c2cccc3c(C(=O)NC)ccnc23)ncn1` [Compound (2), (S)-N-methyl-8-(1-((2′-methyl-4′,6′-dideutero-[4,5′-bipyrimidin]-6-yl)amino)propan-2-yl)quinoline-4-carboxamide]: the results for the “Average Bliss score” value in the data set with ESO26 and in the data set with A549 [3] were 43.2 ± 6.5 (n = 3) and 27.3 (n = 1), respectively. In addition, the “shift in IC50 of the combination compared to doxorubicin alone” value in data set [4] is on record as greater than 3 fold. In addition, the blood exposure in [5] (25 mg/kg Compound (2) bid group) amounted to 9300 ng·h/mL; in [5] (50 mg/kg Compound (2) bid group), 27000 ng·h/mL.
